Reference: patent US11161819B2, “Substituted tetrahydroisoquinoline compounds useful as GPR120 agonists” (Merck Sharp & Dohme Corp., priority 2016, dated 2021)

Target: T1, human GPR120 (Homo sapiens, UniProt Q5NUL3)
T1 construct: expressed in transfected cells
T1 sequence (Q5NUL3 1-361): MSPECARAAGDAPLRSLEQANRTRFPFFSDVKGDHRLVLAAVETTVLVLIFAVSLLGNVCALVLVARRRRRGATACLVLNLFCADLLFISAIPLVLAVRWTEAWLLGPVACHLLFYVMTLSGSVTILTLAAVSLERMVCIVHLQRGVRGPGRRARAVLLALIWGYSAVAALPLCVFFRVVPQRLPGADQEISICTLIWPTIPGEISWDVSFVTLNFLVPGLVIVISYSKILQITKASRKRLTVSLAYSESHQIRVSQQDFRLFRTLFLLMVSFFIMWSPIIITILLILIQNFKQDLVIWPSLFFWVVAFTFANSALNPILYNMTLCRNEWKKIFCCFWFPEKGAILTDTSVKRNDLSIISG
Test: Human GPR120 IP1 Assay (inositol phosphate turnover, CisBio IP-One kit)
Format: cell-based
Conditions: IP1 accumulation in CHO-K1 cells stably expressing the short form of human GPR120; 60 min compound incubation; 4-parameter fit; read-out: hGPR120 EC50
Procedure, shortened: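 CHO-K1 cells stably expressing short-form human GPR120 were stimulated with compounds for 60 minutes at 37 degrees in stimulation buffer. IP1 accumulation measured by HTRF competitive immunoassay (665/620 nm ratio) against an IP1 standard curve, normalized to a reference compound; EC50 from 4-parameter fit.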

| Molecule | EC50 [nM] |
| --- | --- |
| Cc1cnc(Oc2cc(C(F)F)c(F)c(N3CCc4cc(CCC(=O)O)ccc4C3)c2)s1 [Example 14, 3-(2-{3-(difluoromethyl)-2-fluoro-5-[(5-methyl-1,3-thiazol-2-yl)oxy]phenyl}-1,2,3,4-tetrahydro-isoquinolin-6-yl)propanoic acid] | 20 |
| N#Cc1cc(OC2CCC2)cc(N2CCc3cc(CCC(=O)O)ccc3C2)c1F [Example 12, 3-{2-[3-cyano-5-(cyclobutyloxy)-2-fluorophenyl]-1,2,3,4-tetra-hydroisoquinolin-6-yl}propanoic acid] | 24 |
| COc1cc(Oc2ncc(C)s2)cc(N2CCc3cc(CCC(=O)O)ccc3C2)c1F [Example 17, 3-(2-{2-fluoro-3-methoxy-5-[(5-methyl-1,3-thiazol-2-yl)oxy]phenyl}-1,2,3,4-tetrahydroiso-quinolin-6-yl)propanoic acid] | 23 |
| O=C(O)CCc1ccc2c(c1)CCN(c1cncc(OC3CCC3)n1)C2 [Example 41, 3-{2-[6-(cyclobutyloxy)pyrazin-2-yl]-1,2,3,4-tetrahydroiso-quinolin-6-yl}propanoic acid] | 569 |
| CC1c2ccc(CCC(=O)O)cc2CCN1c1cc(OC2CCC2)cc(F)c1Cl (centres unmarked) [Example 37, 3-{2-[2-chloro-5-(cyclobutyloxy)-3-fluorophenyl]-1-methyl-1,2,3,4-tetrahydroisoquinolin-6-yl}-propanoic acid] | 377 |
| N#Cc1c(F)cc(OC(F)(F)F)cc1N1CCc2c(ccc([C@H]3C[C@@H]3C(=O)O)c2F)C1 [Example 119, (1S,2S)-2-{2-[2-cyano-3-fluoro-5-(trifluoromethoxy)phenyl]-5-fluoro-1,2,3,4-tetrahydroisoquinolin-6-yl}cyclopropane-carboxylic acid] | 273 |
| CO[C@H]1C[C@H](Oc2cc(F)c(F)c(N3CCc4cc([C@H]5C[C@@H]5C(=O)O)ccc4C3)c2)C1 [Example 100, (1S,2S)-2-(2-{2,3-difluoro-5-[(trans-3-methoxycyclobutyl)oxy]phenyl}-1,2,3,4-tetrahydroiso-quinolin-6-yl)-cyclopropanecarboxylic acid] | 251 |
| CC(Cc1ccc2c(c1F)CCN(c1cc(OC(F)(F)F)ccc1F)C2)C(=O)O (centres unmarked) [Example 77, 3-{5-fluoro-2-[2-fluoro-5-(trifluoromethoxy)phenyl]-1,2,3,4-tetrahydro-isoquinolin-6-yl}-2-methyl-propanoic acid] | 5880 |
| Cc1ccc(-n2nc(C)c(C#N)c2N2CCc3cc(OCCCO)ccc3C2)cc1 [Example 144, 5-[6-(3-hydroxypropoxy)-3,4-dihydroisoquinolin-2(1H)-yl]-3-methyl-1-(4-methylphenyl)-1H-pyrazole-4-carbonitrile] | 4300 |
| Cc1ccc(-n2nc(C)c(Cl)c2N2CCc3c(ccc(CCC(=O)O)c3F)C2)cc1 [Example 146, 3-{2-[4-chloro-3-methyl-1-(4-methylphenyl)-1H-pyrazol-5-yl]-5-fluoro-1,2,3,4-tetrahydroisoquinolin-6-yl}propanoic acid] | 309 |
| O=C(O)CCc1ccc2c(c1F)CCN(c1cc(OC(F)(F)F)cc(Cl)c1F)C2 [Example 65, 3-{2-[3-chloro-2-fluoro-5-(trifluoromethoxy)phenyl]-5-fluoro-1,2,3,4-tetra-hydroisoquinolin-6-yl} propanoic acid] | 37 |
| O=C(O)C1CC1c1ccc2c(c1)CCN(c1cc(OC(F)(F)F)cc(Cl)c1F)C2 (centres unmarked) [Example 104, 2-{2-[3-chloro-2-fluoro-5-(trifluoro-methoxy)phenyl]-1,2,3,4-tetra-hydroisoquinolin-6-yl}cyclo-propane-carboxylic acid] | 4040 |
| O=C(O)[C@H]1C[C@@H]1c1ccc2c(c1F)CCN(c1cc(OC(F)(F)F)cc(Cl)c1F)C2 [Example 120, (1S,2S)-2-{2-[3-chloro-2-fluoro-5-(trifluoromethoxy)phenyl]-5-fluoro-1,2,3,4-tetrahydroisoquinolin-6-yl}cyclopropane-carboxylic acid] | 299 |
| O=C(O)[C@H]1C[C@@H]1c1ccc2c(c1F)CCN(c1cc(OC3CCC3)cc(Cl)c1F)C2 [Example 125, (1S,2S)-2-{2-[3-chloro-5-(cyclobutyloxy)-2-fluorophenyl]-5-fluoro-1,2,3,4-tetrahydroisoquinolin-6-yl}cyclopropane-carboxylic acid] | 414 |
| O=C(O)CCc1ccc2c(c1)CCN(c1cc(OC3CCC3)ccc1F)C2 [Example 19, 3-{2-[5-(cyclobutyloxy)-2-fluorophenyl]-1,2,3,4-tetrahydroiso-quinolin-6-yl}propanoic acid] | 27 |
| Cc1c(CCC(=O)O)ccc2c1CCN(c1cc(OC3CCC3)cc(F)c1C#N)C2 [Example 157, 3-{2-[2-cyano-5-(cyclobutyloxy) 3-fluorophenyl]-5-methyl-1,2,3,4-tetrahydroisoquinolin-6-yl}-propanoic acid] | 15 |

| Molecule | EC50 [nM] |
| --- | --- |
| O=C(O)CCc1ccc2c(c1)CCN(c1cc(OC(F)(F)F)cc(Cl)c1F)C2 [Example 15, 3-{2-[3-chloro-2-fluoro-5-(trifluoromethoxy)phenyl]-1,2,3,4-tetrahydroisoquinolin-6-yl}-propanoic acid] | 22 |
| 3-{2-[2-cyano-5-(cyclobutyloxy) phenyl]-1,2,3,4-tetrahydroiso- quinolin-6-yl}propanoic acid [Example 46] | 5390 |
| O=C(O)CCc1ccc2c(c1F)CCN(c1nc(OC3CCC3)ccc1F)C2 [Example 63, 3-{2-[6-(cyclobutyloxy)-3-fluoro-pyridin-2-yl]-5-fluoro-1,2,3,4-tetra-hydro-isoquinolin-6-yl} propanoic acid] | 14 |
| N#Cc1c(F)cc(OC2CCC2)cc1N1CCc2c(ccc([C@H]3C[C@@H]3C(=O)O)c2F)C1 [Example 126, (1S,2S)-2-{2-[2-cyano-5-(cyclo-butyloxy)-3-fluorophenyl]-5-fluoro-1,2,3,4-tetrahydroiso-quinolin-6-yl}cyclopropane-carboxylic acid] | 9740 |
| N#Cc1c(Cl)cc(OC2CCC2)cc1N1CCc2c(ccc(CCC(=O)O)c2F)C1 [Example 150, 3-{2-[3-chloro-2-cyano-5-(cyclobutyloxy)phenyl]-5-fluoro-1,2,3,4-tetrahydroisoquinolin-6-yl} propanoic acid] | 16 |
| CO[C@H]1C[C@H](Oc2ccc(C#N)c(N3CCc4cc(CCC(=O)O)ccc4C3)c2)C1 [Example 48, 3-(2-{2-cyano-5-[(trans-3-methoxy-cyclobutyl)oxy]phenyl}-1,2,3,4-tetrahydroisoquinolin-6-yl)-propanoic acid] | 596 |
| Cc1ccc(-n2nc(C)c(Cl)c2N2CCc3cc(CCCCC(=O)O)ccc3C2)cc1 [Example 137, 5-{2-[4-chloro-3-methyl-1-(4-methylphenyl)-1H-pyrazol-5-yl]-1,2,3,4-tetrahydroisoquinolin-6-yl} pentanoic acid] | 93 |
| O=C(O)[C@H]1C[C@@H]1c1ccc2c(c1)CCN(Cc1cc(C(F)(F)F)cc(Cl)c1F)C2 [Example 93, (1S,2S)-2-{2-[3-chloro-2-fluoro-5-(trifluoromethyl)benzyl]-1,2,3,4-tetrahydroisoquinolin-6-yl} cyclopropanecarboxylic acid] | 350 |
| O=C(O)CCc1ccc2c(c1)CCN(c1cc(Oc3ccccn3)cc(C(F)F)c1F)C2 [Example 2, 3-(2-(3-(difluoromethyl)-2-fluoro-5-(pyridin-2-yloxy)phenyl)-1,2,3,4-tetrahydro-isoquinolin-6-yl)propanoic acid] | 17 |
| O=C(O)CCc1ccc2c(c1)CCN(c1cc(OC(F)(F)F)ccc1F)C2 [Example 27, 3-{2-[2-fluoro-5-(trifluoro-methoxy)phenyl]-1,2,3,4-tetrahydro-isoquinolin-6-yl}propanoic acid] | 61 |
| O=C(O)[C@@H]1C[C@H]1c1ccc2c(c1F)CCN(c1cc(OC(F)(F)F)cc(Cl)c1F)C2 [Example 111, (1R,2R)-2-{2-[3-chloro-2-fluoro-5-(trifluoromethoxy)-phenyl]-5-fluoro-1,2,3,4-tetrahydroisoquinolin-6-yl}cyclo-propanecarboxylic acid] | 32 |
| Cc1ccc(-n2nc(C)c(F)c2N2CCc3cc(C4CC4C(=O)O)ccc3C2)cc1 (centres unmarked) [Example 94, 2-{2-[4-fluoro-3-methyl-1-(4-methylphenyl)-1H-pyrazol-5-yl]-1,2,3,4-tetrahydroisoquinolin-6-yl}cyclo-propanecarboxylic acid] | 473 |
| CC(Cc1ccc2c(c1)CCN(c1cc(OC(F)(F)F)ccc1F)C2)C(=O)O (centres unmarked) [Example 52] | 510 |
| N#Cc1cc(OC(F)(F)F)cc(N2CCc3c(ccc([C@H]4C[C@@H]4C(=O)O)c3F)C2)c1F [Example 116, (1S,2S)-2-{2-[3-cyano-2-fluoro-5-(trifluoromethoxy)phenyl]-5-fluoro-1,2,3,4-tetrahydroiso-quinolin-6-yl}cyclopropane-carboxylic acid] | 107 |
| O=C(O)CCc1ccc2c(c1F)CCN(c1cc(C(F)(F)C3CCC3)ccc1F)C2 [Example 56, 3-(2-(5-(cyclobutyldifluoromethyl)-2-fluorophenyl)-5-fluoro-1,2,3,4-tetrahydro-isoquinolin-6-yl)propanoic acid] | 40 |
| O=C(O)[C@H]1C[C@@H]1c1ccc2c(c1)CCN(c1cc(OC3CCC3)cc(Cl)c1F)C2 [Example 91, (1S,2S)-2-{2-[3-chloro-5-(cyclobutyloxy)-2-fluorophenyl]-1,2,3,4-tetrahydroisoquinolin-6-yl} cyclopropane carboxylic acid] | 59 |
